Structures can show the parent of a compound that is named as a salt. Where only a bound is given, the exact number is not on record here.

The test system of the assay is glycolysis in HT1080 cells. Kind of assay: Glycolysis assay: oligomycin plus compound, cellular ATP by Cell Titer Glo. In kind it is cell-based. Conditions: Homo sapiens, HT-1080, 1 h, 10 μM oligomycin, one hour, class symbols. The essentials: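 Confluent HT1080 cells treated 1 h with compound plus 10 μM oligomycin to block mitochondrial ATP, so remaining ATP reflects glycolysis. Cellular ATP read by Cell Titer-Glo luminescence; IC50 derived from dose-response curves.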
By IC50 is commonly meant the point on the concentration scale where inhibition reaches its midpoint. Consider `O=C(COc1cccc(-c2nc3c(c(Nc4ccc(-c5cn[nH]c5)cc4)n2)COCC3)c1)NC1CCC1` [Example 109, 2-(3-(4-((4-(1H-pyrazol-4-yl)phenyl)amino)-7,8-dihydro-5H-pyrano[4,3-d]pyrimidin-2-yl)phenoxy)-N-cyclobutylacetamide], for which the IC50 fell in the range of 10 to 100 nM.

For the compound `CC(C)(C)NC(=O)COc1cccc(-c2nc(Nc3ccc(-c4cn[nH]c4)cc3)c3sccc3n2)c1` [Example 110, 2-(3-(4-((4-(1H-pyrazol-4-yl)phenyl)amino)thieno[3,2-d]pyrimidin-2-yl)phenoxy)-N-(tert-butyl)acetamide], the IC50 is 101 to 250 nM.

For `CCC(C)(C)NC(=O)COc1cccc(-c2nc(Nc3ccc(-c4cn[nH]c4)cc3)c3sccc3n2)c1` [Example 111, 2-(3-(4-((4-(1H-pyrazol-4-yl)phenyl)amino)thieno[3,2-d]pyrimidin-2-yl)phenoxy)-N-(tert-pentyl)acetamide], the IC50 is 101 to 250 nM.

Regarding `CC(=O)N1CCc2nc(-c3cccc(OCC(=O)NC(C)C)c3)nc(Nc3ccc(-c4cn[nH]c4)cc3)c2C1` [Example 112, 2-(3-(4-((4-(1H-pyrazol-4-yl)phenyl)amino)-6-acetyl-5,6,7,8-tetrahydropyrido[4,3-d]pyrimidin-2-yl)phenoxy)-N-isopropylacetamide], the IC50 is 101 to 250 nM.

For `CCC(CC)NC(=O)COc1cccc(-c2nc3c(c(Nc4ccc(-c5cn[nH]c5)cc4)n2)CN(C(C)=O)CC3)c1` [Example 113, 2-(3-(4-((4-(1H-pyrazol-4-yl)phenyl)amino)-6-acetyl-5,6,7,8-tetrahydropyrido[4,3-d]pyrimidin-2-yl)phenoxy)-N-(pentan-3-yl)acetamide], the concentration for half-maximal inhibition (IC50) lay in the range of 10 to 100 nM.

`CC(=O)N1CCc2nc(-c3cccc(OCC(=O)NC(C)(C)C)c3)nc(Nc3ccc(-c4cn[nH]c4)cc3)c2C1` [Example 114, 2-(3-(4-((4-(1H-pyrazol-4-yl)phenyl)amino)-6-acetyl-5,6,7,8-tetrahydropyrido[4,3-d]pyrimidin-2-yl)phenoxy)-N-(tert-butyl)acetamide]: the IC50 lay in the range of 10 to 100 nM.

On to `CCC(CC)NC(=O)COc1cccc(-c2nc3c(c(Nc4ccc(-c5cn[nH]c5)cc4)n2)CN(CC)CC3)c1` [Example 118, 2-(3-(4-((4-(1H-pyrazol-4-yl)phenyl)amino)-6-ethyl-5,6,7,8-tetrahydropyrido[4,3-d]pyrimidin-2-yl)phenoxy)-N-(pentan-3-yl)acetamide], for which the IC50 is 501 to 1000 nM.

With `CCC(CC)NC(=O)COc1cccc(-c2nc3c(c(Nc4ccc(-c5cn[nH]c5)cc4)n2)CN(C(C)C)CC3)c1` [Example 119, 2-(3-(4-((4-(1H-pyrazol-4-yl)phenyl)amino)-6-isopropyl-5,6,7,8-tetrahydropyrido[4,3-d]pyrimidin-2-yl)phenoxy)-N-(pentan-3-yl)acetamide], the IC50 was 501 to 1000 nM.

As to `CCN1CCc2nc(-c3cccc(OCC(=O)NC4CCCC4)c3)nc(Nc3ccc(-c4cn[nH]c4)cc3)c2C1` [Example 125, 2-(3-(4-((4-(1H-pyrazol-4-yl)phenyl)amino)-6-ethyl-5,6,7,8-tetrahydropyrido[4,3-d]pyrimidin-2-yl)phenoxy)-N-cyclopentylacetamide], the IC50 was 101 to 250 nM.

Regarding `COCCOc1cccc(-c2nc3c(c(Nc4ccc(-c5cn[nH]c5)cc4)n2)COCC3)c1` [Example 127, N-(4-(1H-pyrazol-4-yl)phenyl)-2-(3-(2-methoxyethoxy)phenyl)-7,8-dihydro-5H-pyrano[4,3-d]pyrimidin-4-amine], the IC50 is more than 1000 nM.

Regarding `CCC(C)(C)NC(=O)COc1cccc(-c2nc3c(c(Nc4ccc(-c5cn[nH]c5)cc4)n2)CNCC3)c1` [Example 128, 2-(3-(4-((4-(1H-pyrazol-4-yl)phenyl)amino)-5,6,7,8-tetrahydropyrido[4,3-d]pyrimidin-2-yl)phenoxy)-N-(tert-pentyl)acetamide], the IC50 lay in the range of 10 to 100 nM.

Regarding `CCN1CCc2nc(-c3cccc(OCC(=O)NC(C)(C)CC)c3)nc(Nc3ccc(-c4cn[nH]c4)cc3)c2C1` [Example 130, 2-(3-(4-((4-(1H-pyrazol-4-yl)phenyl)amino)-6-ethyl-5,6,7,8-tetrahydropyrido[4,3-d]pyrimidin-2-yl)phenoxy)-N-(tert-pentyl)acetamide], the IC50 lay within 10 to 100 nM.

Consider `CCC(C)(C)NC(=O)COc1cccc(-c2nc3c(c(Nc4ccc(-c5cn[nH]c5)cc4)n2)CN(C(C)C)CC3)c1` [Example 131, 2-(3-(4-((4-(1H-pyrazol-4-yl)phenyl)amino)-6-isopropyl-5,6,7,8-tetrahydropyrido[4,3-d]pyrimidin-2-yl)phenoxy)-N-(tert-pentyl)acetamide], for which the IC50 is 101 to 250 nM.

In the case of `CCC(=O)N1CCc2nc(-c3cccc(OCC(=O)NC(C)(C)CC)c3)nc(Nc3ccc(-c4cn[nH]c4)cc3)c2C1` [Example 132, 2-(3-(4-((4-(1H-pyrazol-4-yl)phenyl)amino)-6-propionyl-5,6,7,8-tetrahydropyrido[4,3-d]pyrimidin-2-yl)phenoxy)-N-(tert-pentyl)acetamide], the IC50 was in the range of 10 to 100 nM.

On to `CC(C)NC(=O)COc1cccc(-c2nc(Nc3ccc(-c4cn[nH]c4)cc3)c3cnccc3n2)c1` [Example 134, 2-(3-(4-((4-(1H-pyrazol-4-yl)phenyl)amino)pyrido[4,3-d]pyrimidin-2-yl)phenoxy)-N-isopropylacetamide], for which the IC50 lay in the range of 10 to 100 nM.

As for `CC(C)(C)NC(=O)COc1cccc(-c2nc(Nc3ccc(-c4cn[nH]c4)cc3)c3cnccc3n2)c1` [Example 135, 2-(3-(4-((4-(1H-pyrazol-4-yl)phenyl)amino)pyrido[4,3-d]pyrimidin-2-yl)phenoxy)-N-(tert-butyl)acetamide], the IC50 was in the range of 10 to 100 nM.

In the case of `CC(C)(C)NC(=O)COc1cccc(-c2nc(Nc3ccc(-c4cn[nH]c4)cc3)c3ccncc3n2)c1` [Example 136, 2-(3-(4-((4-(1H-pyrazol-4-yl)phenyl)amino)pyrido[3,4-d]pyrimidin-2-yl)phenoxy)-N-(tert-butyl)acetamide], the IC50 was 10 to 100 nM.

Take `CCC(CC)NC(=O)COc1cccc(-c2nc(Nc3ccc(-c4cn[nH]c4)cc3)c3ccncc3n2)c1` [Example 137, 2-(3-(4-((4-(1H-pyrazol-4-yl)phenyl)amino)pyrido[3,4-d]pyrimidin-2-yl)phenoxy)-N-(pentan-3-yl)acetamide dihydrochloride]: the IC50 fell in the range of 10 to 100 nM.

On to `O=C(COc1cccc(-c2nc(Nc3ccc(-c4cn[nH]c4)cc3)c3ccncc3n2)c1)NC1CCCCC1` [Example 138, 2-(3-(4-((4-(1H-pyrazol-4-yl)phenyl)amino)pyrido[3,4-d]pyrimidin-2-yl)phenoxy)-N-cyclohexylacetamide dihydrochloride], for which the IC50 lay within 10 to 100 nM.

As to `NC(=O)COc1cccc(-c2nc(Nc3ccc(-c4cn[nH]c4)cc3)c3sccc3n2)c1` [Example 139, 2-(3-(4-((4-(1H-pyrazol-4-yl)phenyl)amino)thieno[3,2-d]pyrimidin-2-yl)phenoxy)acetamide], the IC50 is more than 1000 nM.

For the compound `CC(=O)N1Cc2nc(-c3cccc(OCC(=O)NC(C)C)c3)nc(Nc3ccc(-c4cn[nH]c4)cc3)c2C1` [Example 140, 2-(3-(4-((4-(1H-pyrazol-4-yl)phenyl)amino)-6-acetyl-6,7-dihydro-5H-pyrrolo[3,4-d]pyrimidin-2-yl)phenoxy)-N-isopropylacetamide], the IC50 was in the range of 101 to 250 nM.

In the case of `CCC(CC)NC(=O)COc1cccc(-c2nc3c(c(Nc4ccc(-c5cn[nH]c5)cc4)n2)CN(C(C)=O)C3)c1` [Example 141, 2-(3-(4-((4-(1H-pyrazol-4-yl)phenyl)amino)-6-acetyl-6,7-dihydro-5H-pyrrolo[3,4-d]pyrimidin-2-yl)phenoxy)-N-(pentan-3-yl)acetamide], the IC50 was in the range of 10 to 100 nM.

For the compound `CC(=O)N1Cc2nc(-c3cccc(OCC(=O)NC(C)(C)C)c3)nc(Nc3ccc(-c4cn[nH]c4)cc3)c2C1` [Example 142, 2-(3-(4-((4-(1H-pyrazol-4-yl)phenyl)amino)-6-acetyl-6,7-dihydro-5H-pyrrolo[3,4-d]pyrimidin-2-yl)phenoxy)-N-(tert-butyl)acetamide], the IC50 is 10 to 100 nM.

As to `CC(=O)N1Cc2nc(-c3cccc(OCC(=O)NC4CCCC4)c3)nc(Nc3ccc(-c4cn[nH]c4)cc3)c2C1` [Example 143, 2-(3-(4-((4-(1H-pyrazol-4-yl)phenyl)amino)-6-acetyl-6,7-dihydro-5H-pyrrolo[3,4-d]pyrimidin-2-yl)phenoxy)-N-cyclopentylacetamide], the IC50 lay in the range of 10 to 100 nM.

On to `CC(=O)N1CCc2nc(-c3cccc(OCC(=O)NC4CCCC4)c3)nc(Nc3ccc(-c4cn[nH]c4)cc3)c2C1` [Example 145, 2-(3-(4-((4-(1H-pyrazol-4-yl)phenyl)amino)-6-acetyl-5,6,7,8-tetrahydropyrido[4,3-d]pyrimidin-2-yl)phenoxy)-N-cyclopentylacetamide], for which the IC50 was 10 to 100 nM.

As for `CC(=O)N1CCc2nc(-c3cccc(OCC(=O)NCC(C)C)c3)nc(Nc3ccc(-c4cn[nH]c4)cc3)c2C1` [Example 146, 2-(3-(4-((4-(1H-pyrazol-4-yl)phenyl)amino)-6-acetyl-5,6,7,8-tetrahydropyrido[4,3-d]pyrimidin-2-yl)phenoxy)-N-isobutylacetamide], the IC50 fell in the range of 10 to 100 nM.

On to `CC(=O)N1CCc2nc(-c3cccc(OCC(=O)NCC(C)(C)C)c3)nc(Nc3ccc(-c4cn[nH]c4)cc3)c2C1` [Example 147, 2-(3-(4-((4-(1H-pyrazol-4-yl)phenyl)amino)-6-acetyl-5,6,7,8-tetrahydropyrido[4,3-d]pyrimidin-2-yl)phenoxy)-N-neopentylacetamide], for which the IC50 lay within 10 to 100 nM.

On to `CCC(C)(C)NC(=O)COc1cccc(-c2nc3c(c(Nc4ccc(-c5cn[nH]c5)cc4)n2)CN(C(C)=O)CC3)c1` [Example 148, 2-(3-(4-((4-(1H-pyrazol-4-yl)phenyl)amino)-6-acetyl-5,6,7,8-tetrahydropyrido[4,3-d]pyrimidin-2-yl)phenoxy)-N-(tert-pentyl)acetamide], for which the IC50 was 10 to 100 nM.

As to `CC(C)NC(=O)COc1cccc(-c2nc3c(c(Nc4ccc(-c5cn[nH]c5)cc4)n2)CN(C(=O)C(C)C)CC3)c1` [Example 149, 2-(3-(4-((4-(1H-pyrazol-4-yl)phenyl)amino)-6-isobutyryl-5,6,7,8-tetrahydropyrido[4,3-d]pyrimidin-2-yl)phenoxy)-N-isopropylacetamide], the IC50 fell in the range of 10 to 100 nM.
